According to patent publication US9820966B2, “Stabilized statin formulations” (Cumberland Pharmaceuticals Inc., priority 2010, dated 2017):
Like-named read-outs stand apart in the source and are kept apart here.

Key:
[1] = Solubility in basic solutions without cyclodextrin (HPLC); conditions: Sample 1: 20 mg AS in 1 mL, 16.54 mM L-Arg; pH 10.71 with L-Arg (L-Arg alone)
[2] = AS in propylene glycol and ethanol (4/1), pH 11.0; in 2 hours
Experimental: The sample was then vortexed, filtered, after which it was analyzed by HPLC.

[3] = Precipitation on dilution into water or saline; format: physicochemical

For `CC(C)c1c(C(=O)Nc2ccccc2)c(-c2ccccc2)c(-c2ccc(F)cc2)n1CC[C@@H](O)C[C@@H](O)CC(=O)O` [AS, Atorvastatin free acid], the resulting concentration [1] was 1.91 mg/mL, the degradation [2] was “approximately 50%” and the precipitation on dilution ([3]; 100% ethanol solution, diluted 1:1 with saline) was “precipitated”. For the same compound, the precipitation on dilution ([3]; 100% propylene glycol solution, diluted 1:1 with saline) was “precipitated”.

For `CC(C)c1c(C(=O)Nc2ccccc2)c(-c2ccccc2)c(-c2ccc(F)cc2)n1CC[C@@H](O)C[C@@H](O)CC(=O)O` [AS—Ca, atorvastatin calcium trihydrate], the degradation (control solution of the same mixture (20% HPβ-CD, pH 8.47), 40° C. for 1 month) was ~15.5%, the degradation (solubilized with HPβ-CD (20%, pH 8.47), lyophilized with manifold freeze dryer, 40° C. for 1 month) was ~3.5% and the degradation (solubilized with HPβ-CD, diluted 1:1 into 8% sucrose, lyophilized with shelf freeze dryer, storage 1 month at 40° C.) was “less than 0.1%”. For the same compound, the precipitation on dilution ([3]; Example 12 PG/ethanol/water sample adjusted to pH 7.5, diluted 1:1 into water) was “precipitated”, the precipitation on dilution ([3]; Example 12 PG/ethanol/water sample adjusted to pH 8.0, diluted 1:1 into water) was “precipitated” and the precipitation on dilution ([3]; anything less than 40% propylene glycol and 10% ethanol, diluted with normal saline) was “precipitation”. For the same compound, the precipitation on dilution ([3]; prepared in non-aqueous co-solvents and then diluted into saline) was “precipitate” and the precipitation on dilution ([3]; propylene glycol and ethanol (4/1), pH 11.0, diluted 1:3 in saline) was “precipitated”.
